Key:
Rab10 pThr73 [1] = test: Rab10 Thr73 dephosphorylation (immunoblot) in WT MEFs; format: cell-based, mouse; conditions: Mus musculus; for inhibition at 0.033 µM / inhibition at 1 µM: read-out: pRab10 inhibited in WT MEFs; for EC50: dose response, 4 h treatment, read-out: WT MEFs pRab10-dephosphrylation EC50
Outline: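 Wild-type mouse embryonic fibroblasts in 6-well plates were treated with LRRK2 PROTACs, with two biological replicates per condition. Cells were washed in PBS and lysed on ice in buffer containing phosphatase and protease inhibitors plus 1% Triton X-100, then clarified at 15,000 g. Rab10 Thr73 phosphorylation was measured by quantitative immunoblotting of 15 to 20 μg protein on 4-12% Bis-Tris gels.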

Rab10 pThr73 [2] = test: Rab10 Thr73 dephosphorylation (immunoblot) in LRRK2^G2019S MEFs; format: cell-based, mouse; conditions: Mus musculus; for inhibition at 1 µM: read-out: pRab10 inhibited in LRRK2^G2019S MEFs; for EC50: dose response, 4 h treatment, read-out: G2019S MEFs-pRab10-dephosphorylation EC50
LRRK2^WT [3] = test: Western blot LRRK2 degradation in WT MEFs; format: cell-based, mouse; conditions: WT MEFs and LRRK2^G2019S MEFs
Experimental: (§1) Western blot degradation assays for the LRRK2 protacs were performed with WT and PD-associated LRRK2 [G2019S] mouse embryonic fibroblasts (MEFs). The second-generation PROTACs were tested in parallel with the first generation PROTACs SD75, SD82, and SD100. The compounds were tested at 33 nM or […] concentrations for 4 hours or 24 hours, running two biological replicates per condition and achieving quantifications representative of both replicates. Analysis by quantitative immunoblotting was performed with readouts of the total LRRK2 (antibody recognizes epitope in C-terminus of protein), Rab10 pThr73 (physiological substrate) and LRRK2 pSer935 (biomarker phosphorylation site).
(§2) Primary MEFs were generated as described in a previous study (Wiggin et al., Mol. Cell Biol. 2002 April; 22(8):2871-81.). Briefly, the uterine horn was collected from adult female mice at day E12.5 and transferred to a 10 cm tissue culture dish containing cold PBS. Two forceps were used to tear the yolk sacs to isolate each embryo. Forceps were cleaned thoroughly with 70% ethanol between each embryo isolation. The embryos were culled, and a tissue piece was collected in a PCR tube for genotyping. The red tissue of the embryo, which grows to become the heart and liver, was removed. The remainder of the embryo was minced with a scalpel blade and incubated with 7.5 ml trypsin-EDTA solution for 10 minutes in a 37° C. tissue culture CO2 incubator. The dish was removed from the incubator and checked under a light microscope for single cells. 7.5 ml complete media was added to the trypsinised cells, and the cell suspension was transferred to a 15 ml Falcon tube, centrifuged at 1200 rpm for 5 minutes at room temperature. The trypsin was aspirated, the cell pellet was resuspended in 5 ml fresh complete media, and the cell suspension was plated in a 60 mm tissue culture dish and incubated in a 37° C., 5% CO2 tissue culture incubator. The MEFs at this stage were considered as passage 0 and were passaged and expanded for experimental use once the genotype was confirmed by allelic sequencing and immunoblotting. MEFs were cultured in Dulbecco's modified Eagle medium (DMEM) containing 10% (v/v) fetal bovine serum (FBS), 2 mM L-glutamine, 100 U/ml penicillin, and 100 μg/ml streptomycin supplemented with 1× non-essential amino acids and 1 mM sodium pyruvate.
(§3) Culturing and passaging of adherent cell lines were carried out using aseptic technique in CL1 or CL2 (for PBMC isolation) biological safety cabinets. All cells were incubated in a 37° C. incubator with 5% CO2. Cell lines were regularly tested for mycoplasma contamination. For western blot assay, the cells were seeded in 6-well plates. After treating with testing compounds at indicated concentrations and time period, the media was removed and the cells were washed with PBS and lysed in 100 μl ice-cold complete lysis buffer containing 50 mM Tris-HCl pH 7.4, 1 mM EGTA, 10 mM 2-glycerophosphate, 50 mM sodium fluoride, 5 mM sodium pyrophosphate, 270 mM sucrose, supplemented with 1 μg/ml microcystin-LR, 1 mM sodium orthovanadate, complete EDTA-free protease inhibitor cocktail (Roche) and 1% (v/v) Triton X-100. The cells were immediately placed on ice and were scraped and collected into 1.5 ml Eppendorf tubes. Cell lysates were incubated on ice for 10 minutes prior to centrifugation at 15,000 g at 4° C. for 15 minutes. The cell pellet was discarded, and supernatant was collected for analysis by quantitative immunoblotting. For long term storage, the supernatant was flash frozen and stored at −80° C. Protein concentrations of cell lysates were determined using the Bradford assay.
(§4) Cell lysates containing a quarter of a volume of 4× NuPAGE LDS sample buffer (NP0007) supplemented with 5% β-mercaptoethanol, were heated at 95° C. for 5 minutes. […]

Rab10 pThr73 [4] = test: Rab10 Thr73 dephosphorylation (immunoblot) in LRRK2^G2019S MEFs; format: cell-based; conditions: Mus musculus, read-out: pRab10 inhibited in LRRK2^G2019S MEFs
LRRK2^WT [5] = biological target: T1, LRRK2^WT (Mus musculus, UniProt Q5S006); test: Western blot LRRK2 degradation in WT MEFs; format: cell-based; conditions: dose response, 4 h treatment; for Dmax: read-out: Dmax on WT MEFs
T1 construct: endogenous in cells; host or cells: primary wild-type mouse embryonic fibroblasts (MEFs)
Experimental: as §1, §2, §3, §4

LRRK2^G2019S = biological target: T2, LRRK2^G2019S (Mus musculus, UniProt Q5S006, G2019S); test: Western blot LRRK2 degradation in LRRK2^G2019S MEFs; format: cell-based; conditions: dose response, 4 h treatment; for Dmax: read-out: Dmax on G2019S MEFs
T2 construct: endogenous in cells; host or cells: LRRK2[G2019S] mouse embryonic fibroblasts (MEFs)
Experimental: as §1, with “The” for “Western blot degradation assays for the LRRK2 protacs were performed with WT and PD-associated LRRK2 [G2019S] mouse embryonic fibroblasts (MEFs). The”
as §2
Culturing and passaging of adherent cell lines were carried out using aseptic technique in CL1 or CL2 (for PBMC isolation) biological safety cabinets. All cells were incubated in a 37° C. incubator with 5% CO2. Cell lines were regularly tested for mycoplasma contamination. For western blot assay, the cells were seeded in 6-well plates. […] The cells were immediately placed on ice and were scraped and collected into 1.5 ml Eppendorf tubes. Cell lysates were incubated on ice for 10 minutes prior to centrifugation at 15,000 g at 4° C. for 15 minutes. The cell pellet was discarded, and supernatant was collected for analysis by quantitative immunoblotting. For long term storage, the supernatant was flash frozen and stored at −80° C. Protein concentrations of cell lysates were determined using the Bradford assay.
Cell lysates containing a quarter of a volume of 4× NuPAGE LDS sample buffer (NP0007) supplemented with 5% β-mercaptoethanol, were heated at 95° C. for 5 minutes. 15 to 20 μg of samples were loaded onto pre-cast 4-12% Bis-Tris midi 20W or 26W gels (Thermofisher Scientific®, Cat #WG1402BOX or WG1403BOX) and resolved at 130 V for 2 hours with NuPAGE MOPS SDS running buffer (Thermofisher Scientific® Cat #NP0001-02). Proteins were electrophoretically transferred onto a 0.45 μm nitrocellulose membrane (GE Healthcare, Amersham Protran® Supported 0.45 mm NC) at 90 V for 90 min on ice in transfer buffer (48 mM Tris base and 39 mM glycine supplemented with 20% methanol). The transferred membrane was blocked with 5% (w/v) skim milk powder dissolved in tris-buffered saline with tween (TBS-T) (50 mM Tris base, 150 mM sodium chloride (NaCl), 0.1% (v/v) Tween-20) at room temperature for 1 hour.

T1 sequence (Q5S006 whole entry): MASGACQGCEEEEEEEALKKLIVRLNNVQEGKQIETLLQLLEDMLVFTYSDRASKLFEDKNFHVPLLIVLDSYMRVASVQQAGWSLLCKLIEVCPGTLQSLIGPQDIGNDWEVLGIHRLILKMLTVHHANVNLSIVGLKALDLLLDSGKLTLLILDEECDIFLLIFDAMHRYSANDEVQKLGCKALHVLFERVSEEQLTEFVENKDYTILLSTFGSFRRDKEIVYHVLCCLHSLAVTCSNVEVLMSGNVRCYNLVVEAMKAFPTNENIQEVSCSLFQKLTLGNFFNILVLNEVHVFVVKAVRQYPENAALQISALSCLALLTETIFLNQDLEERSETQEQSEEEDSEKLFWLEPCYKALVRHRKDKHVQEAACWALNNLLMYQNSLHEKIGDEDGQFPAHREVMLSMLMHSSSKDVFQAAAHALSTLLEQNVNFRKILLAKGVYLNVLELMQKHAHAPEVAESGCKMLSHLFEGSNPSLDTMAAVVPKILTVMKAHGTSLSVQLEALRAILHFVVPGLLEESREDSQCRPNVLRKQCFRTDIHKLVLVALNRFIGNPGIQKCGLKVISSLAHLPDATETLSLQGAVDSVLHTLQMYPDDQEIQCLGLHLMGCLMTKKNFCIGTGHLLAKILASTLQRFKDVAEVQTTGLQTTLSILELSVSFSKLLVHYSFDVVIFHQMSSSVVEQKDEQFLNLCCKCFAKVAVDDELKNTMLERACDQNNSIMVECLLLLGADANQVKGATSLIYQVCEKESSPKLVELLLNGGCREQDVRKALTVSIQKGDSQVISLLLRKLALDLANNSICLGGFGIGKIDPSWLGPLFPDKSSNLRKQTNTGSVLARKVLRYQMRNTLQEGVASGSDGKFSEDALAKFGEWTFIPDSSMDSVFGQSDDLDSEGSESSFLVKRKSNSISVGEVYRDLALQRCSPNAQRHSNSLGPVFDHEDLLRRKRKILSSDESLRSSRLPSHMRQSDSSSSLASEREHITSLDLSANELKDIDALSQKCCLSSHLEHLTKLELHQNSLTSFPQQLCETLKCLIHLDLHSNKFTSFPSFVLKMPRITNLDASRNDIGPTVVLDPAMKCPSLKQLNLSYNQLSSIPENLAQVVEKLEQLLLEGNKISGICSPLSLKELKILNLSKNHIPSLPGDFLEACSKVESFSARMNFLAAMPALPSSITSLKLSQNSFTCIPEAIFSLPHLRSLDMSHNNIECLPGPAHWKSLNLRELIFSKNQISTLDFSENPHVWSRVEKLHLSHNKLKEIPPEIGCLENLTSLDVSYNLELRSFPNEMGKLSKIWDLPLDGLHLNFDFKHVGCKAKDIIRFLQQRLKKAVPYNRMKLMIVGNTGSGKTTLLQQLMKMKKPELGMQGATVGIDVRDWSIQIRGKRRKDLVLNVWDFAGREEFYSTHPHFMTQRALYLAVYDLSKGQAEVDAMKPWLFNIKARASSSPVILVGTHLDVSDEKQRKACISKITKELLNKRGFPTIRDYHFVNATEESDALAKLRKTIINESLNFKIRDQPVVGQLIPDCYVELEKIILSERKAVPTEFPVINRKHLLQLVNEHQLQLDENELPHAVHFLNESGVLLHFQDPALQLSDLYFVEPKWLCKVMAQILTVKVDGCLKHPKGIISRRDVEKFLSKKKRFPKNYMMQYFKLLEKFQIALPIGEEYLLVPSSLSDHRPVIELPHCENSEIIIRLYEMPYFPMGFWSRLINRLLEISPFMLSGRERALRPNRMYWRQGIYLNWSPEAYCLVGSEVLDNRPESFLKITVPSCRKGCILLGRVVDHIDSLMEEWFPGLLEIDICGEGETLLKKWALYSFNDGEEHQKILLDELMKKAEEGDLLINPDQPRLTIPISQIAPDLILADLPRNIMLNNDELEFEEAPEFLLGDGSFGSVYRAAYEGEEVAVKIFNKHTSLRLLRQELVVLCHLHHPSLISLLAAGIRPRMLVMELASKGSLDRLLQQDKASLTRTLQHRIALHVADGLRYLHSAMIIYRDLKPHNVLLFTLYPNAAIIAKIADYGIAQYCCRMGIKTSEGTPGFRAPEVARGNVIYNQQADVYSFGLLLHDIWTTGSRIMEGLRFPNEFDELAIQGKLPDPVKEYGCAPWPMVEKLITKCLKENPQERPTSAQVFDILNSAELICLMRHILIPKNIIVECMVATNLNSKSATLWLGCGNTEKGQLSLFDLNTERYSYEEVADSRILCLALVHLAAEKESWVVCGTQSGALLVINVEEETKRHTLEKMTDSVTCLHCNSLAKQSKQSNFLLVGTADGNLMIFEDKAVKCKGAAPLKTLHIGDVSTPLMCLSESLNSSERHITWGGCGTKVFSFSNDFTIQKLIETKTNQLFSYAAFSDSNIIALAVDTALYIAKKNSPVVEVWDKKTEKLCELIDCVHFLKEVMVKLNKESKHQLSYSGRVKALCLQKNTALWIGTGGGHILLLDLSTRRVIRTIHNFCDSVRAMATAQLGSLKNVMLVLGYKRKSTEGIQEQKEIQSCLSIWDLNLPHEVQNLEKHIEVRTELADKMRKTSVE
T2 sequence (Q5S006 whole entry G2019S): as the sequence (Q5S006 whole entry) above, with G2019S counted along it

Molecule `CNc1nc(Nc2ccc(C(=O)N3CCN(Cc4ccc(CSC(C)(C)[C@H](NC(=O)C5(F)CC5)C(=O)N5C[C@H](O)C[C@H]5C(=O)NCc5ccc(-c6scnc6C)cc5)cc4)CC3)cc2OC)ncc1Cl` [SD100, (2S,4R)-1-((R)-3-((4-((4-(4-((5-chloro-4-(methylamino)pyrimidin-2-yl)amino)-3-methoxybenzoyl)piperazin-1-yl)methyl)benzyl)thio)-2-(1-fluorocyclopropane-1-carboxamido)-3-methylbutanoyl)-4-hydroxy-N-(4-(4-methylthiazol-5-yl)benzyl)pyrrolidine-2-carboxamide] has an inhibition at 0.033 µM (Rab10 pThr73 [1]; 33 nM/4 h treatment) of 0 to 25%, an inhibition at 1 µM (Rab10 pThr73 [1]; 1 μM/4 h treatment) of 18 to 90% and an inhibition at 1 µM (Rab10 pThr73 [1]; 1 μM/24 h treatment) of 30 to 90%. For the same molecule, the inhibition at 1 µM (Rab10 pThr73 [2]; 1 μM/4 h treatment) was 30 to 95%, the “LRRK2 degradation (in words)” value (LRRK2^WT [3]) was “moderate LRRK2 degradation” and the inhibition at 0.033 µM (Rab10 pThr73 [4]; 33 nM/4 h treatment) was 0 to 60%. The inhibition at 0.033 µM (Rab10 pThr73 [4]; 33 nM/24 h treatment) was 0 to 70%.
`CNc1nc(Nc2ccc(C(=O)N3CCC4(CCN(C[C@H]5CC[C@H](CSC(C)(C)C(NC(=O)C6(F)CC6)C(=O)N6C[C@H](O)C[C@H]6C(=O)NCc6ccc(-c7scnc7C)cc6)CC5)CC4)CC3)cc2OC)ncc1Cl` (stereo partly drawn) [XL02038, (2S,4R)-1-((S)-3-((((1R,4S)-4-((9-(4-((5-chloro-4-(methylamino)pyrimidin-2-yl)amino)-3-methoxybenzoyl)-3,9-diazaspiro[5.5]undecan-3-yl)methyl)cyclohexyl)methyl)thio)-2-(1-fluorocyclopropane-1-carboxamido)-3-methylbutanoyl)-4-hydroxy-N-(4-(4-methylthiazol-5-yl)benzyl)pyrrolidine-2-carboxamide] was tested, and the inhibition at 0.033 µM (Rab10 pThr73 [1]; 33 nM/4 h treatment) was 0 to 70%, the inhibition at 0.033 µM (Rab10 pThr73 [1]; 33 nM/24 h treatment) was 0 to 80% and the inhibition at 1 µM (Rab10 pThr73 [1]; 1 μM/4 h treatment) was 80 to 100%. For the same molecule, the inhibition at 1 µM (Rab10 pThr73 [1]; 1 μM/24 h treatment) was 80 to 100%, the EC50 (Rab10 pThr73 [1]) was 0.014 µM and the inhibition at 1 µM (Rab10 pThr73 [2]; 1 μM/4 h treatment) was 10 to 100%. For the same molecule, the inhibition at 1 µM (Rab10 pThr73 [2]; 1 μM/24 h treatment) was 80 to 100%, the EC50 (Rab10 pThr73 [2]) was 0.01 µM and the Dmax (LRRK2^WT [5]) was 65%. The Dmax (LRRK2^G2019S) was 79%, the inhibition at 0.033 µM (Rab10 pThr73 [4]; 33 nM/4 h treatment) was 0 to 90% and the inhibition at 0.033 µM (Rab10 pThr73 [4]; 33 nM/24 h treatment) was 30 to 90%.
For `CNc1nc(Nc2ccc(OC3CCN(C[C@H]4CC[C@H](CSC(C)(C)C(NC(=O)C5(F)CC5)C(=O)N5C[C@H](O)C[C@H]5C(=O)NCc5ccc(-c6scnc6C)cc5)CC4)CC3)cc2OC)ncc1Cl` (stereo partly drawn) [XL02017, (2S,4R)-1-((S)-3-((((1R,4S)-4-((4-(4-((5-chloro-4-(methylamino)pyrimidin-2-yl)amino)-3-methoxyphenoxy)piperidin-1-yl)methyl)cyclohexyl)methyl)thio)-2-(1-fluorocyclopropane-1-carboxamido)-3-methylbutanoyl)-4-hydroxy-N-(4-(4-methylthiazol-5-yl)benzyl)pyrrolidine-2-carboxamide], the inhibition at 0.033 µM (Rab10 pThr73 [1]; 33 nM/4 h treatment) was 0 to 70%, the inhibition at 0.033 µM (Rab10 pThr73 [1]; 33 nM/24 h treatment) was 0 to 80% and the inhibition at 1 µM (Rab10 pThr73 [1]; 1 μM/4 h treatment) was 80 to 100%. It also gave an inhibition at 1 µM (Rab10 pThr73 [1]; 1 μM/24 h treatment) of 80 to 100%, an EC50 (Rab10 pThr73 [1]) of 0.083 µM and an inhibition at 1 µM (Rab10 pThr73 [2]; 1 μM/4 h treatment) of 10 to 100%. For the same molecule, the inhibition at 1 µM (Rab10 pThr73 [2]; 1 μM/24 h treatment) was 80 to 100%, the EC50 (Rab10 pThr73 [2]) was 0.025 µM and the DC50 (LRRK2^WT [5]) was 0.044 µM. For the same molecule, the Dmax (LRRK2^WT [5]) was 68%, the DC50 (LRRK2^G2019S) was 0.022 µM and the Dmax (LRRK2^G2019S) was 79%. It also gave an inhibition at 0.033 µM (Rab10 pThr73 [4]; 33 nM/4 h treatment) of 0 to 90% and an inhibition at 0.033 µM (Rab10 pThr73 [4]; 33 nM/24 h treatment) of 30 to 90%.
In the case of `CNc1nc(Nc2ccc(C(=O)N3CCN(C[C@H]4CC[C@@H](CSC(C)(C)[C@H](NC(=O)C5(F)CC5)C(=O)N5C[C@H](O)CC5C(=O)N[C@@H](C)c5ccc(-c6scnc6C)cc5)CC4)CC3)cc2OC)ncc1Cl` (stereo partly drawn) [XL02060, (2S,4R)-1-((R)-3-((((1s,4S)-4-((4-(4-((5-chloro-4-(methylamino)pyrimidin-2-yl)amino)-3-methoxybenzoyl)piperazin-1-yl)methyl)cyclohexyl)methyl)thio)-2-(1-fluorocyclopropane-1-carboxamido)-3-methylbutanoyl)-4-hydroxy-N—((S)-1-(4-(4-methylthiazol-5-yl)phenyl)ethyl)pyrrolidine-2-carboxamide], the inhibition at 0.033 µM (Rab10 pThr73 [1]; 33 nM/4 h treatment) is reported as 0 to 70%, the inhibition at 0.033 µM (Rab10 pThr73 [1]; 33 nM/24 h treatment) is reported as 0 to 80% and the inhibition at 1 µM (Rab10 pThr73 [1]; 1 μM/4 h treatment) is reported as 80 to 100%. For the same molecule, the inhibition at 1 µM (Rab10 pThr73 [1]; 1 μM/24 h treatment) was 80 to 100%, the EC50 (Rab10 pThr73 [1]) was 0.032 µM and the inhibition at 1 µM (Rab10 pThr73 [2]; 1 μM/4 h treatment) was 10 to 100%. It also gave an inhibition at 1 µM (Rab10 pThr73 [2]; 1 μM/24 h treatment) of 80 to 100%, an EC50 (Rab10 pThr73 [2]) of 0.027 µM and a Dmax (LRRK2^WT [5]) of 71%. For the same molecule, the Dmax (LRRK2^G2019S) was 78.5%, the inhibition at 0.033 µM (Rab10 pThr73 [4]; 33 nM/4 h treatment) was 0 to 90% and the inhibition at 0.033 µM (Rab10 pThr73 [4]; 33 nM/24 h treatment) was 30 to 90%.
